Laboratory results published in US9526718B2, “Combination of effective substances causing synergistic effects of multiple targeting and use thereof” (VIVOZON, INC., priority 2011, dated 2016).

Columns and labels:
[1] = test system: neuropathic pain rat model (SNL); experiment: Neuropathic pain rat model (spinal nerve ligation, SNL), von Frey up-down mechanical threshold; assay type: in vivo; settings: Example 1, s.c., alone or combined, MDL 11,939 2 or 5 mg/kg, ORG-25543 10 or 20 mg/kg, 30 and 60 min after administration
Description: In order to prepare a neuropathic pain rat model (spinal nerve ligation (SNL) model), a male adult Sprague-Dawley rat was anaesthetized with isoflurane and its spinal nerves L5 were tied firmly (Kim and Chung, An experimental model for peripheral neuropathy produced by segmental spinal nerve ligation in the rat. Pain, 50: 355-363, 1992). One week later after surgical operation, MDL 11,939 and ORG-25543 were administered respectively or in combination thereof, and a pain relieving effect was monitored.
MDL 11,939 (Tocris Bioscience, USA) and ORG-25543 (CBvest inc, Korea) were dissolved in DMA/PG (2:8). MDL 11,939 was subcutaneously injected into the rat model and, immediately, ORG-25543 was subcutaneously injected into another part of the rat model. Then, 30 minutes and 60 minutes after administration, the extent of pain suppression was analyzed based on behaviors of the rat model.
The behavioral experiment was carried out with strict observance of clinical test procedures including criteria on randomization, a blind test, and use of a control group. By providing a mechanical stimulus to the left sole of the foot, a shrinking reaction to the stimulus was measured. This measurement value was determined by an up-down method using a von Frey monofilament (Baik et al., 2003 E. J. Baik, J. M. Chung and K. Chung, Peripheral norepinephrine exacerbates neuritis-induced hyperalgesia, J Pain 4 (2003), pp. 212-221; Chaplan et al., 1994 S. R. Chaplan, F. W. Bach, J. W. Pogrel, J. M. Chung and T. L. Yaksh, Quantitative assessment of tactile allodynia in the rat paw, J Neurosci Methods 53 (1994), pp. 55-63; Dixon, 1980 W. J. Dixon, Efficient analysis of experimental observations, Annu. Rev. Pharmacol. Toxicol. 20 (1980), pp. 441-462).
In the same manner as Example 1, a male adult Sprague-Dawley rat was anaesthetized with isoflurane and its spinal nerves L5 were tied firmly. […]

serotonin release = settings: hypothalamic, rat; cited from earlier work
5-HT2A receptor = 5-HT2A receptor (Homo sapiens, UniProt P28223); settings: cited from earlier work
Sequence of 5-HT2A receptor (P28223 whole entry): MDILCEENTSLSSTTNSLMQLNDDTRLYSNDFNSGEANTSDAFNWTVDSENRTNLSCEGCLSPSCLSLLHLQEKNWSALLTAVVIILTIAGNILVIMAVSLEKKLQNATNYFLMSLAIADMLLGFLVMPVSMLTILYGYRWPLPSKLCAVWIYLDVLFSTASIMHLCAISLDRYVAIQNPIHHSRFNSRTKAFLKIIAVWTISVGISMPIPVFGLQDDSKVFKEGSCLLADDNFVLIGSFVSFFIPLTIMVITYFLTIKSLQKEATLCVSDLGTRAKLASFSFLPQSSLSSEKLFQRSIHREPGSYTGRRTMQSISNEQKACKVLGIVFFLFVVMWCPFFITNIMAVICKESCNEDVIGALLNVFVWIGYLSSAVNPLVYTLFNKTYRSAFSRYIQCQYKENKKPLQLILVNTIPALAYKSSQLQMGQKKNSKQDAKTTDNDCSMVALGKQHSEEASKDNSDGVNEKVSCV

OC(c1ccccc1)C1CCN(CCc2ccccc2)CC1 (centres unmarked) [MDL 11,939]
pain relieving (analgesic) effect [1]: no or very little pain relieving effect

COc1cc(C(=O)NCC2(N(C)C)CCCC2)cc(OC)c1OCc1ccccc1 [ORG-25543]
pain relieving (analgesic) effect [1]: no effect
pain relieving (analgesic) effect ([1]; listed as ORG2553): no or very little pain relieving effect

COc1cc2c(cc1OC)[C@@H]1Cc3ccc(OC)c(OC)c3CN1CC2 [d1-tetrahydropalmatine]
serotonin release (serotonin release): mediates inhibition of serotonin release

CC(C)=CCc1c(O)cc2oc3cc(O)c(O)c(CC=C(C)C)c3c(=O)c2c1O [γ-mangostin]
antagonistic effect with respect to 5-HT2A receptor (5-HT2A receptor): antagonistic effect
